The results in this text go back to ChEMBL document CHEMBL1201862, “PubChem BioAssay data set” (2004).

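These data come from cells grown in 96-well plates and exposed to compound for 48 hours at five concentrations. GI50 = concentration required for 50% inhibition of growth.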 The source made the active and inactive calls. Cut-off read from the data, not from the text of the source: active = GI50 up to about 1.1 µM and inactive = higher.

Some test systems named below: Malme-3M; CCRF-CEM; HL-60; UO-31; UACC-62; NCI-H460; 786-0; SNB-19; NCI-H23; SK-MEL-5; HCT-15; SF-295; TK-10; SK-OV-3; SK-MEL-28; SF-268; MOLT-4; M14; U-251.
Common to all, as to assay: NCI tumour cell line growth inhibition, 48 h

As to `CC(C)(Oc1ccc(/C=C/C(=O)c2ccccc2)cc1)C(=O)Nc1c(Cl)cccc1Cl`, the GI50 in the experiment on Malme-3M is > 10 µM (inactive); in the experiment with CCRF-CEM it was 15 µM (inactive); in the experiment with HL-60 it was 14.7 µM (inactive); in the experiment on UO-31, > 10 µM (inactive); in the experiment with UACC-62, > 10 µM (inactive); with NCI-H460, > 10 µM (inactive). Moreover, the GI50 was > 10 µM (inactive) in the experiment on 786-0; > 10 µM (inactive) in the experiment on SNB-19; 7.33 µM (inactive) with NCI-H23; > 10 µM (inactive) in the experiment on SK-MEL-5; greater than 10 µM with HCT-15; > 10 µM (inactive) with SF-295. In addition, the GI50 in the experiment with TK-10, in the experiment with SK-OV-3, in the experiment with SK-MEL-28, in the experiment with SF-268, in the experiment on MOLT-4 and in the experiment on M14 was > 10 µM (inactive) throughout. For the same compound, the GI50 in the experiment with U-251 is 7.14 µM (inactive).
On to `Cc1nc(Nc2ccc(Cl)cc2)sc1C(=O)NNC(=O)C(=O)NN`, for which the GI50 with Malme-3M was 21.9 µM (inactive); in the experiment with CCRF-CEM, 22.2 µM (inactive); with HL-60, 17.4 µM (inactive); with UO-31, 16.6 µM (inactive); in the experiment with UACC-62, 15.3 µM (inactive); in the experiment on NCI-H460 it was 19.7 µM (inactive). Besides, the GI50 with 786-0 is 17.3 µM (inactive); in the experiment with SNB-19 it was 21.3 µM (inactive); in the experiment with NCI-H23, 16.6 µM (inactive); in the experiment with SK-MEL-5, 18.7 µM (inactive); in the experiment on HCT-15, 17.1 µM; in the experiment with SF-295, 18.2 µM (inactive). For the same compound, the GI50 in the experiment with TK-10 was 29.5 µM (inactive); in the experiment with SK-OV-3 it was 22 µM (inactive); in the experiment with SK-MEL-28, 22.8 µM (inactive); with SF-268 it was 27.8 µM (inactive); in the experiment with MOLT-4 it was 19.5 µM (inactive); in the experiment on M14, 18.6 µM (inactive). The GI50 in the experiment with U-251 is 19.1 µM (inactive).
Turning to `COc1cc(/C=C/C(=O)c2cccc3ccccc23)cc(OC)c1OC`, the GI50 in the experiment on Malme-3M is 11.4 µM (inactive); with CCRF-CEM, 2.56 µM (inactive); with HL-60 it was 1.72 µM (inactive); in the experiment on UO-31, 16.8 µM (inactive); with UACC-62, 6.71 µM (inactive); with NCI-H460, 3.78 µM (inactive). Also, the GI50 in the experiment on 786-0 is 4.49 µM (inactive); in the experiment with SNB-19, 13.4 µM (inactive); in the experiment with NCI-H23 it was 5.32 µM (inactive); in the experiment with SK-MEL-5 it was 10.4 µM (inactive); with SF-295, 10.1 µM (inactive); in the experiment with TK-10, 14.2 µM (inactive). Also, the GI50 with SK-OV-3 is 15.2 µM (inactive); with SK-MEL-28, 6.24 µM (inactive); in the experiment on SF-268, 4.74 µM (inactive); in the experiment on MOLT-4, 3.44 µM (inactive); with M14 it was 5.93 µM (inactive); with U-251, 6.41 µM (inactive).
Consider `CSC1=Nc2ccccc2N=C(c2ccccc2)C1`, for which the GI50 is > 100 µM (inactive) with Malme-3M; 21 µM (inactive) in the experiment on CCRF-CEM; 15.3 µM (inactive) in the experiment with HL-60; 38 µM (inactive) in the experiment with UO-31; > 100 µM (inactive) in the experiment on UACC-62; 19.1 µM (inactive) with NCI-H460. The GI50 was 34.5 µM (inactive) in the experiment with 786-0; > 100 µM (inactive) with SNB-19; 50.2 µM (inactive) with NCI-H23; 44.5 µM (inactive) with SK-MEL-5; 33.3 µM with HCT-15; > 100 µM (inactive) in the experiment on SF-295. The GI50 was 80 µM (inactive) with TK-10; > 100 µM (inactive) with SK-OV-3; > 100 µM (inactive) in the experiment with SK-MEL-28; > 100 µM (inactive) with SF-268; 27.9 µM (inactive) in the experiment with MOLT-4; > 100 µM (inactive) with M14. Also, the GI50 in the experiment on U-251 is > 100 µM (inactive).
Consider `COc1ccc(OC(C)C(=O)O)c2c1CCCC2=O` (stereo not drawn), for which the GI50 in the experiment with Malme-3M, in the experiment with CCRF-CEM, in the experiment on HL-60, in the experiment on UO-31, with UACC-62 and in the experiment on NCI-H460 was > 100 µM (inactive) throughout. The GI50 is > 100 µM (inactive) in the experiment on 786-0; > 100 µM (inactive) in the experiment with SNB-19; > 100 µM (inactive) with NCI-H23; > 100 µM (inactive) in the experiment with SK-MEL-5; greater than 100 µM with HCT-15; > 100 µM (inactive) in the experiment on SF-295. Also, the GI50 in the experiment with TK-10, in the experiment with SK-OV-3, in the experiment on SK-MEL-28, in the experiment with SF-268, in the experiment with MOLT-4 and in the experiment with M14 was > 100 µM (inactive) throughout. For the same compound, the GI50 in the experiment with U-251 is > 100 µM (inactive).
In the case of `COc1ccc(C(=O)CC(=O)C(=O)Nc2ccc(C)c(C)c2)cc1`, the GI50 in the experiment with Malme-3M is > 100 µM (inactive); in the experiment with CCRF-CEM it was 26.5 µM (inactive); in the experiment on HL-60 it was 10.5 µM (inactive); with UO-31, 98.6 µM (inactive); in the experiment with UACC-62 it was > 95.5 µM (inactive); in the experiment with NCI-H460, > 41.3 µM (inactive). Besides, the GI50 with 786-0 was > 69 µM (inactive); in the experiment with SNB-19, > 100 µM (inactive); with NCI-H23, > 100 µM (inactive); in the experiment with SK-MEL-5, 97.9 µM (inactive); in the experiment on HCT-15, 31.3 µM; in the experiment on SF-295, > 100 µM (inactive). Moreover, the GI50 was > 100 µM (inactive) in the experiment on TK-10; > 100 µM (inactive) in the experiment with SK-OV-3; > 100 µM (inactive) with SK-MEL-28; 56.2 µM (inactive) in the experiment on SF-268; > 53.2 µM (inactive) with MOLT-4; > 100 µM (inactive) with M14. Further, the GI50 in the experiment with U-251 is 63.4 µM (inactive).
Take `CC(=O)NC1C(OCc2ccccc2)OC(COC(=O)CCCCCNc2ccc([N+](=O)[O-])c3[nH]c4ccc(O)cc4c(=O)c23)C(O)C1OC(C)C(=O)N[C@@H](C)C(=O)N[C@H](CCC(=O)OCc1ccccc1)C(N)=O` (stereo partly drawn): the GI50 is 1.32 µM (inactive) in the experiment with Malme-3M; 3.06 µM (inactive) with CCRF-CEM; 2.77 µM (inactive) in the experiment on HL-60; 1.77 µM (inactive) in the experiment on UACC-62; 0.261 µM (active) with NCI-H460; 1.86 µM (inactive) with 786-0. In addition, the GI50 in the experiment on SNB-19 is 3 µM (inactive); in the experiment on NCI-H23, 1.35 µM (inactive); in the experiment on SK-MEL-5, 8.53 µM (inactive); in the experiment on HCT-15 it was 0.745 µM; in the experiment with SF-295, 3.08 µM (inactive); in the experiment on TK-10, 3.06 µM (inactive). Moreover, the GI50 in the experiment on SK-OV-3 was 2.99 µM (inactive); in the experiment on SK-MEL-28 it was 2.69 µM (inactive); with SF-268, 2.31 µM (inactive); in the experiment with MOLT-4, 1.87 µM (inactive); with M14, 1.49 µM (inactive); in the experiment with U-251, 2.45 µM (inactive).
`O=[N+]([O-])c1ccc(-n2nnc(C3=NCCN3)c2-c2ccc(Cl)cc2)cc1`: the GI50 in the experiment on Malme-3M was > 100 µM (inactive); in the experiment on CCRF-CEM, > 100 µM (inactive); with HL-60 it was > 100 µM (inactive); with UO-31, 83.2 µM (inactive); in the experiment on UACC-62, > 100 µM (inactive); in the experiment on NCI-H460, 91.4 µM (inactive). For the same compound, the GI50 with 786-0 was > 100 µM (inactive); in the experiment with SNB-19 it was > 100 µM (inactive); with NCI-H23, > 100 µM (inactive); in the experiment on SK-MEL-5 it was > 100 µM (inactive); in the experiment on HCT-15 it was greater than 100 µM; in the experiment on SF-295, > 100 µM (inactive). For the same compound, the GI50 is 69 µM (inactive) with TK-10; > 100 µM (inactive) in the experiment with SK-OV-3; > 100 µM (inactive) with SK-MEL-28; 73.3 µM (inactive) in the experiment with SF-268; 65.3 µM (inactive) with MOLT-4; > 100 µM (inactive) with M14. In addition, the GI50 with U-251 was > 100 µM (inactive).
Take `CCOc1ccccc1/N=N/c1c(-c2ccccc2)nn(C(=O)CC(=O)Nc2cccc(C)c2)c1-c1ccccc1`: the GI50 is > 100 µM (inactive) in the experiment with Malme-3M; > 100 µM (inactive) in the experiment on CCRF-CEM; > 100 µM (inactive) in the experiment with HL-60; 35.2 µM (inactive) with UO-31; > 100 µM (inactive) with UACC-62; > 100 µM (inactive) in the experiment on NCI-H460. The GI50 in the experiment with 786-0, in the experiment with SNB-19, in the experiment on NCI-H23, in the experiment on SK-MEL-5, with SF-295 and with TK-10 was > 100 µM (inactive) throughout. The GI50 in the experiment on SK-OV-3 was > 100 µM (inactive); in the experiment with SK-MEL-28, > 100 µM (inactive); in the experiment on SF-268 it was 74.8 µM (inactive); in the experiment with MOLT-4 it was > 100 µM (inactive); with M14, > 100 µM (inactive); in the experiment with U-251 it was > 100 µM (inactive).
For `CCc1ccccc1NC(=O)C1=C(C)NC(C)=C(C(=O)Nc2ccccc2CC)C1c1ccc(NC(C)=O)cc1`, the GI50 in the experiment with Malme-3M was 49.1 µM (inactive); in the experiment with CCRF-CEM it was 18.7 µM (inactive); with HL-60 it was 14.3 µM (inactive); with UO-31, 35.2 µM (inactive); in the experiment on NCI-H460 it was 30.5 µM (inactive); with 786-0, 37.8 µM (inactive). The GI50 with SNB-19 was 92.7 µM (inactive); with NCI-H23 it was 42.7 µM (inactive); in the experiment on SK-MEL-5, 38.1 µM (inactive); in the experiment with SF-295 it was 54.7 µM (inactive); with TK-10, > 100 µM (inactive); in the experiment on SK-OV-3 it was > 100 µM (inactive). The GI50 in the experiment on SK-MEL-28 is 22.2 µM (inactive); in the experiment on SF-268 it was 38.1 µM (inactive); in the experiment on MOLT-4 it was 15.3 µM (inactive); in the experiment on M14 it was 39 µM (inactive); in the experiment with U-251, 53.6 µM (inactive).
Regarding `CN(C)/C(=N/C(=S)Nc1ccccc1)SCc1ccccc1`, the GI50 is 40.2 µM (inactive) with Malme-3M; 11.7 µM (inactive) with CCRF-CEM; 18.2 µM (inactive) in the experiment with HL-60; 22.5 µM (inactive) in the experiment with UO-31; 6.17 µM (inactive) with UACC-62; 56.1 µM (inactive) in the experiment on 786-0. Further, the GI50 is 40.3 µM (inactive) with SNB-19; 40.9 µM (inactive) with NCI-H23; 3.14 µM (inactive) in the experiment with SK-MEL-5; 57.5 µM in the experiment with HCT-15; 42.9 µM (inactive) in the experiment with SF-295; > 100 µM (inactive) with TK-10. Also, the GI50 with SK-OV-3 is > 100 µM (inactive); with SK-MEL-28, 42.2 µM (inactive); in the experiment on SF-268, 48.3 µM (inactive); with MOLT-4, 32.5 µM (inactive); in the experiment on M14 it was 67.8 µM (inactive); in the experiment with U-251, 49.2 µM (inactive).
